For data set [1], the target named is Acetylcholinesterase (Electrophorus electricus) (UniProt O42275). Put plainly: Inhibition of Electric eel AChE at 10 uM using acetylthiocholine iodide as substrate preincubated for 5 mins followed by substrate addition measured after 5 mins by Ellman's method relative to control. (In Ellman's method for cholinesterases, released thiocholine reacts with DTNB.)

In data set [2] the target is Cholinesterase (Equus caballus) (UniProt P81908). Put plainly: Inhibition of equine serum BuChE at 10 uM using butyrylthiocholine iodide as substrate preincubated for 5 mins followed by substrate addition measured after 5 mins by Ellman's method relative to control.
The target in data set [3] is Acetylcholinesterase (Electrophorus electricus, UniProt O42275).
Description: Inhibition of Electric eel AChE using acetylthiocholine iodide as substrate preincubated for 5 mins followed by substrate addition measured after 5 mins by Ellman's method
Another data set can be described thus: in vitro. The following applies: PAMPA. (In PAMPA a lipid-coated filter parts donor from acceptor wells.)
The target of data set [4] is T1, Acetylcholinesterase (Homo sapiens, UniProt P22303). Description: Inhibition of recombinant human AChE using acetylthiocholine iodide as substrate preincubated for 5 mins followed by substrate addition measured after 5 mins by Ellman's method.
Data set [5] addresses Amyloid-beta precursor protein (Homo sapiens) (UniProt P05067). Description: Inhibition of recombinant human HFIP-pretreated amyloid beta (1 to 42) self-induced aggregation at 10 uM after 24 hrs by thioflavin T-based fluorometric assay relative to control.
In data set [6] the target is T1, Acetylcholinesterase. Description: Inhibition of recombinant human AChE using acetylthiocholine as substrate by Ellman's method.
For data set [7] the following is noted: PAMPA, 6 h, 100 µM.
Data set [8] addresses Acetylcholinesterase (Electrophorus electricus) (UniProt O42275). Description: Non-competitive inhibition of Electric eel AChE at 0.75 to 3.5 uM using varying levels of acetylthiocholine iodide as substrate preincubated for 5 mins followed by substrate addition measured after 5 mins by Lineweaver-Burk plot analysis.
The target is the same in data set [9]. Put plainly: Non-competitive inhibition of Electric eel AChE at 0.75 to 3.5 uM using varying levels of acetylthiocholine iodide as substrate preincubated for 5 mins followed by substrate addition measured after 5 mins by Cornish-Bowden plot analysis.

Each structure is given as a SMILES string. Calls of active or inactive are those of the source. No cut-off for these calls is given here. A value given as a limit tells only on which side of the number the result lay.

The term inhibition denotes how much of the control response was suppressed. A word on the IC50: it is the concentration that gives 50% inhibition. A word on the Papp: it is the rate of passage across a membrane or cell layer, normalised by area and donor concentration. High values mean fast passage, low ones slow passage.

Chain of Acetylcholinesterase (Electrophorus electricus, UniProt O42275) (O42275 whole entry): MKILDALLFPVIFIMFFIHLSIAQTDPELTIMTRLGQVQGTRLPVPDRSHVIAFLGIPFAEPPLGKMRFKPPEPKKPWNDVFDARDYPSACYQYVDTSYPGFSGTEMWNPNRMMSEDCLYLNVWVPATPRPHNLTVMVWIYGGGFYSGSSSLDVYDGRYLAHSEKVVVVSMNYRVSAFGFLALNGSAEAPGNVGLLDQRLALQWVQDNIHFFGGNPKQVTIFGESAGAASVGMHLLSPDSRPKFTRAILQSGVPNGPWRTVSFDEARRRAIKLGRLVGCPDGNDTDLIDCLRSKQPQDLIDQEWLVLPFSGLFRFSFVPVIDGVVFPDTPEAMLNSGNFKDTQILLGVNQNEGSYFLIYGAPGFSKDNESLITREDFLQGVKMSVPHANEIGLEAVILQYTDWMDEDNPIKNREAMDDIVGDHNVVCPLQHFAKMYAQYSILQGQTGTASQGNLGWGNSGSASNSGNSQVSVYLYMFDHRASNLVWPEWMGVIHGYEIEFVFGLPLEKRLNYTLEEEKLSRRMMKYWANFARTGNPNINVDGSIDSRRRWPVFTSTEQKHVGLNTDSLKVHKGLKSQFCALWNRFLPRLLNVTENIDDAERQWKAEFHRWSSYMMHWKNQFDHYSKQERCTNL
Chain of Cholinesterase (Equus caballus) (P81908 whole entry): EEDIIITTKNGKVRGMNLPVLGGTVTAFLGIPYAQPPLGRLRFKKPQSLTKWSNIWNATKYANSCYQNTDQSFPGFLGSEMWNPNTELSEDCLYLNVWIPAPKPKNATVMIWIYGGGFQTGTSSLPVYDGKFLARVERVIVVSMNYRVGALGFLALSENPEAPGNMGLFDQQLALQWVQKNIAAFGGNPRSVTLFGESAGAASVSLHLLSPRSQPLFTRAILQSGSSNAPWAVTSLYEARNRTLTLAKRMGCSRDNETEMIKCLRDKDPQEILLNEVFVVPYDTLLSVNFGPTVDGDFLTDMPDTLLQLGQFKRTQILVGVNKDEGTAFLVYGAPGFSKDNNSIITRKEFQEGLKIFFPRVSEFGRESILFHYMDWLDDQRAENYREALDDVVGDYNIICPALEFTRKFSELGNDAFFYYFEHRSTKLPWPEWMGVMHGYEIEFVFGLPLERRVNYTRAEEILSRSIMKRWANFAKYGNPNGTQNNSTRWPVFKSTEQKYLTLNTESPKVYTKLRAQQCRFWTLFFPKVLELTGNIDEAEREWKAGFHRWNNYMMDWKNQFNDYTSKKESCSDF
Chain of Acetylcholinesterase (Electrophorus electricus) (O42275 24-633 limits assumed): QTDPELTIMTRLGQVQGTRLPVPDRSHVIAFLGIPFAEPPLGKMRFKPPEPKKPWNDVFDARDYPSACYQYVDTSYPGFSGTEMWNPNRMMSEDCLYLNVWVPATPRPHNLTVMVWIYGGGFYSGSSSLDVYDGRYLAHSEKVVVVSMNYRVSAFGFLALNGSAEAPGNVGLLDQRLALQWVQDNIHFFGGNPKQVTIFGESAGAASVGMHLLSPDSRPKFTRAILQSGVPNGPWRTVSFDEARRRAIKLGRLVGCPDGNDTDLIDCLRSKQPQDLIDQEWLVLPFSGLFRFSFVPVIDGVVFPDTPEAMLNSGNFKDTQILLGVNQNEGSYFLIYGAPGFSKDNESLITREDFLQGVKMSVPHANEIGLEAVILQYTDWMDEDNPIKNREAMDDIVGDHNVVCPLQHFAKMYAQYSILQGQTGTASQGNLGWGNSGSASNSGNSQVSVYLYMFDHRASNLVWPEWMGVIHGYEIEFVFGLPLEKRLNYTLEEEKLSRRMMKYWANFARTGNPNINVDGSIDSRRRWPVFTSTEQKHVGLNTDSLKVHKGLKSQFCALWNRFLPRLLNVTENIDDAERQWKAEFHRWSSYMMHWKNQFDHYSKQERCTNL
T1 sequence (P22303 whole entry): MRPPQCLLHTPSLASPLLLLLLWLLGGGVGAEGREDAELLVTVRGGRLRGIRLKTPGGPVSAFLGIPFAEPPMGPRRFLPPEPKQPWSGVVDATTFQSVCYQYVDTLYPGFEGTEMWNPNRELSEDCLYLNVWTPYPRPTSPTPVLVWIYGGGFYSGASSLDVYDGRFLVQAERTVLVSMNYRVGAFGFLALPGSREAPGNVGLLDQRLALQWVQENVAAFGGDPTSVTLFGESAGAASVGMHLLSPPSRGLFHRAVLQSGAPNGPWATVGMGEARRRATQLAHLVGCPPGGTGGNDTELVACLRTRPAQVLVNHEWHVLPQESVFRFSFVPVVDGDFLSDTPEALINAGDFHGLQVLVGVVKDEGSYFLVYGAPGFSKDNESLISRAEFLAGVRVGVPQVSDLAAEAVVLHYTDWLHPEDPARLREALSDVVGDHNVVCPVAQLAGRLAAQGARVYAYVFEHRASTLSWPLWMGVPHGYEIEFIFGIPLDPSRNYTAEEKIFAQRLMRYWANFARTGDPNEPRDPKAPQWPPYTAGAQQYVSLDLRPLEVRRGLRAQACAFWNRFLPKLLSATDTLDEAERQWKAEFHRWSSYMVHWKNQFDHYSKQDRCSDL
Chain of Amyloid-beta precursor protein (Homo sapiens) (P05067 whole entry): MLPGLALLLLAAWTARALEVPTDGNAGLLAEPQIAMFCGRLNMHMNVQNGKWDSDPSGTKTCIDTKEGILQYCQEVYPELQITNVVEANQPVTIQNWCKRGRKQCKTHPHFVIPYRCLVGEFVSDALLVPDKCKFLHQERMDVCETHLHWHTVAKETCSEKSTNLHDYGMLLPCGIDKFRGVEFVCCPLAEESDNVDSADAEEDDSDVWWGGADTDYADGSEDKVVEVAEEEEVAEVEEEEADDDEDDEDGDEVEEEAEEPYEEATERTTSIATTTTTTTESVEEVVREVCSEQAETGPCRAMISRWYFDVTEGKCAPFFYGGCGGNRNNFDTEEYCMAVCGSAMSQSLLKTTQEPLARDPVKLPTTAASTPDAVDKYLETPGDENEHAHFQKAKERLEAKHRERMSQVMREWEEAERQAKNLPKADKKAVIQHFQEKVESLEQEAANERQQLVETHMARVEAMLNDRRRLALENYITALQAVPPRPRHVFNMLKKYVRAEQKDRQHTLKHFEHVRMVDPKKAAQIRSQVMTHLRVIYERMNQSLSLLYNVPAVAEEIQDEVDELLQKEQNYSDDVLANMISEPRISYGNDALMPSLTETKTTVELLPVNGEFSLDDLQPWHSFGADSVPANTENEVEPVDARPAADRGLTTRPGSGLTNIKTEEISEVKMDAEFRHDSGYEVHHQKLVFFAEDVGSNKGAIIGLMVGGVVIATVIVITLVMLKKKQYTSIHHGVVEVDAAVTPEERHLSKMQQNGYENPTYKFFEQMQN

In the case of `O=C1c2ccccc2S(=O)(=O)N1CCN1CCCN(Cc2ccccc2F)C1`, the inhibition stood at 18.4% in data set [1] and 21.6% in [2].
As to `O=C1c2ccccc2S(=O)(=O)N1CCCCCCN1CCN(Cc2ccccc2)CC1`, the figures for the inhibition in data set [1] and in [2] were 41.7% and 41.8%, respectively.
The like results for `O=C1c2ccccc2C(=O)N1CCN1CCN(Cc2cc(F)cc(F)c2)CC1` were, in that order, less than 10% and 14.2%.
The like results for `O=C1c2ccccc2S(=O)(=O)N1CCCN1CCN(Cc2ccccc2F)CC1` were, in that order, less than 10% and 12%.
Take `O=C1c2ccccc2S(=O)(=O)N1CCCCN1CCN(Cc2ccccc2F)CC1`: the results for the inhibition in data set [1] and in [2] were greater than 50% and 29.6%, respectively. In addition, on Acetylcholinesterase [3], the IC50 amounted to 4.25 µM. The Papp at 6 h, 100 µM in “in vitro” was found to be 11 ×10⁻⁶ cm/s.
On to `O=C1c2ccccc2S(=O)(=O)N1CCCCCNCc1ccccc1`, for which, at Acetylcholinesterase [4], the IC50 is 0.033 µM. In addition, the inhibition in data set [5] stood at 22.2%.
For `O=C1c2ccccc2C(=O)N1CCN1CCN(Cc2ccccc2F)CC1`, the inhibition in [1] is 41.8%; in [2], less than 10%.
Consider `CCN(Cc1ccccc1)Cc1ccc(-c2cc3cc(OCCNC(=O)/C=C/c4cc(F)cc(F)c4)ccc3oc2=O)cc1`, for which the IC50 on Acetylcholinesterase [6] amounted to 0.00716 µM.
Turning to `O=C1c2ccccc2C(=O)N1CCN1CCCN(Cc2ccccc2F)C1`, the inhibition is less than 10% in data set [1] and 27.8% in [2].
Taken in the same sequence, the figures for `O=C1c2ccccc2S(=O)(=O)N1CCN1CCCN(Cc2cc(F)cc(F)c2)C1` were 25.4% and 16.4%.
On to `O=C1c2ccccc2C(=O)N1CCNC1CCCN(Cc2cc(F)cc(F)c2)C1` (stereo unspecified), for which the inhibition in data set [1] is less than 10%; in [2], 14.2%.
In the case of `O=C1c2ccccc2S(=O)(=O)N1CCN1CCN(Cc2cccc(F)c2)CC1`, the values for the inhibition in data set [1] and in [2] were greater than 50% and less than 10%, respectively. This molecule had an IC50 at Acetylcholinesterase [3] of 2.14 µM.
In the case of `O=C1c2ccccc2C(=O)N1CCN1CCCC(NCc2ccccc2F)C1` (stereo unspecified), the inhibition was 15.3% in data set [1] and less than 10% in data set [2].
The like results for `O=C1c2ccccc2S(=O)(=O)N1CCN1CCCC(NCc2cc(F)cc(F)c2)C1` (stereo unspecified) were, in that order, less than 10% and less than 10%.
Take `O=C1c2ccccc2C(=O)N1CCN1CCCN(Cc2cc(F)cc(F)c2)C1`: the inhibition in data set [1] and in data set [2] was less than 10% in each case.
On to `O=C1c2ccccc2S(=O)(=O)N1CCCCCCN1CCN(Cc2ccccc2F)CC1`, for which the inhibition was greater than 50% in data set [1] and 31.6% in data set [2]. Further, at Acetylcholinesterase [3], the IC50 was found to be 8.43 µM.
The molecule `CCN(C)C(=O)Oc1cccc([C@H](C)N(C)C)c1` [RIVASTIGMINE] gave a permeability in data set [7] of 6.6 ×10⁻⁶ cm/s.
In the case of `O=C1c2ccccc2C(=O)N1CCNC1CCCN(Cc2ccccc2)C1` (stereo unspecified), the inhibition in data set [1] is less than 10%; in data set [2], 16%.
On to `O=C1c2ccccc2S(=O)(=O)N1CCN1CCN(CCc2ccccc2F)CC1`, for which the inhibition is less than 10% in [1] and 11.3% in data set [2].
Take `O=C1c2ccccc2S(=O)(=O)N1CCN1CCN(Cc2cc(F)cc(F)c2)CC1`: the inhibition in [1] is greater than 50%; in data set [2], 11%. The molecule further had an IC50 against Acetylcholinesterase [3] of 19.2 µM.
Consider `O=C1c2ccccc2C(=O)N1CCN1CCN(CCc2ccccc2F)CC1`, for which the inhibition is less than 10% in [1] and 20.3% in data set [2].
Take `O=C1c2ccccc2S(=O)(=O)N1CCN1CCN(Cc2ccc(F)cc2)CC1`: the inhibition is greater than 50% in data set [1] and 47.5% in [2]. Further, at Acetylcholinesterase [3], the IC50 is 6.28 µM. Moreover, the Papp at 6 h, 100 µM in “in vitro” was 3.65 ×10⁻⁶ cm/s.
The like results for `O=C1c2ccccc2S(=O)(=O)N1CCCCCN1CCN(Cc2ccccc2F)CC1` were, in that order, greater than 50%, 21.9%, 7.36 µM and 9.6 ×10⁻⁶ cm/s.
Take `O=C1c2ccccc2C(=O)N1CCN1CCCC(NCc2cc(F)cc(F)c2)C1` (stereo unspecified): the figures for the inhibition in [1] and in data set [2] were greater than 50% and 20%, respectively. Further, on Acetylcholinesterase [3], the IC50 turned out to be 6.47 µM.
Turning to `O=C1c2ccccc2S(=O)(=O)N1CCN1CCN(Cc2ccccc2F)CC1`, the inhibition in data set [1] is greater than 50%; in data set [2] it was 16.1%. Further, the IC50 on Acetylcholinesterase [3] was 17.8 µM.
As to `O=C1c2ccccc2S(=O)(=O)N1CCCCN1CCN(Cc2ccccc2)CC1`, the inhibition in data set [1] was greater than 50%; in data set [2], 41.5%. Inhibition against Acetylcholinesterase [3] was half-maximal at 3.01 µM (IC50). This molecule also had an apparent permeability coefficient (Papp) at 6 h, 100 µM in “in vitro” of 10.6 ×10⁻⁶ cm/s.
Consider `O=C1c2ccccc2C(=O)N1CCNC1CCN(Cc2ccccc2)C1` (stereo unspecified), for which the inhibition came to 25.7% in data set [1] and 21.4% in data set [2].
Taken in the same sequence, the figures for `O=C1c2ccccc2S(=O)(=O)N1CCCCCN1CCN(Cc2ccccc2)CC1` were 43.1% and 30.4%.
In the case of `O=C1c2ccccc2S(=O)(=O)N1CCN1CCN(Cc2ccccc2)CC1`, the inhibition in [1] is greater than 50%; in data set [2] it was 22.1%. The inhibition entry in data set [8] and in data set [9] was “Active” throughout. For the same molecule, inhibition at Acetylcholinesterase [3] was half-maximal at 0.83 µM (IC50). The molecule further displayed a Papp at 6 h, 100 µM in “in vitro” of 3.75 ×10⁻⁶ cm/s.
In the case of `O=C1c2ccccc2S(=O)(=O)N1CCN1CCCC(NCc2ccccc2F)C1` (stereo unspecified), the inhibition in [1] and in data set [2] was less than 10% throughout.
Consider `O=C1c2ccccc2C(=O)N1CCNC1CCCN(Cc2ccccc2F)C1` (stereo unspecified), for which the inhibition in [1] was found to be 18.9%; in data set [2], 28.3%.
The like results for `O=C1c2ccccc2S(=O)(=O)N1CCN1CCN(CCc2ccccc2)CC1` were, in that order, less than 10% and 18.4%.
With `O=C1c2ccccc2S(=O)(=O)N1CCCN1CCN(Cc2ccccc2)CC1`, the inhibition in data set [1] came out at 34.2%; in data set [2] it was 11.7%.
